Source: ChEMBL document CHEMBL4052645, “Discovery of potent and efficacious pyrrolopyridazines as dual JAK1/3 inhibitors” (Bioorg Med Chem Lett, 2017)

Columns and labels:
[1] = Drug concentration in mouse at 10 mg/kg, po qd after 24 hrs; type: ADME, organism-based; conditions: in vivo, read-out: Drug uptake
[2] = Protein binding in rat plasma; type: ADME, cell-free; conditions: read-out: PPB (converted)
[3] = Clearance in BALB/c mouse at 2 mg/kg, iv; type: ADME, organism-based; conditions: in vivo
[4] = tested on: Ribosomal protein S6 kinase alpha-2; assay: Inhibition of wild-type human partial length N-terminal RSK3 kinase domain 1 (M1 to Q385 residues) expressed in bacterial expression system assessed as residual activity at 50 nM by Kinomescan method relative to control

Row | SMILES | concentration at 24 h [1] [µM] | fraction unbound [2] | clearance [3] [L/h/kg] | Activity [4] [%]
1 | CC1(C)[C@H](Nc2c(C(N)=O)cnn3cc(-c4ccccc4)cc23)CC[C@]1(C)N | 0.39 | – | – | –
2 | COc1ccc(-c2cc3c(N[C@@H]4CC[C@](C)(N)C4(C)C)c(C(N)=O)cnn3c2)cn1 | – | 0.12 | 1 | 87
